Assay results published in the supplement of paper PMC6965134.
± gives the standard deviation of the averaged measurements.

Assay: TIMS collisional cross section (CCS, N2) of the lipid ion; higher = larger ion cross section
Settings: ionization mode: negative, one isomer drawn
Procedure: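 Lipid extracts of human plasma (NIST SRM 1950), mouse liver or HeLa cells were separated by nanoflow C18 LC (30 min gradient) and analysed by TIMS-PASEF on a timsTOF Pro. Ion mobility was calibrated with the Agilent tuning mix (negative mode ions) and converted to collisional cross sections (Mason–Schamp, N2).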
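Further: lipids from MTBE extraction, five replicate injections per sample, 100 ms TIMS ramp spanning 0.6–1.95 Vs/cm², lipid identity assigned from PASEF MS/MS spectra.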

CC/C=C\C/C=C\CC(O)/C=C/C=C\C/C=C\C/C=C\CCC(=O)O[C@H](COC(=O)CCCCCCCCCCCCCCC)COP(=O)(O)OCCN (stereo partly drawn) [Oxidized PE 16:0_22:6]
TIMS collisional cross section (sample type: Human plasma, ion (formula + adduct): [C43H74NO9P-H] 1-): 277.85 ± 0.78 Å²
TIMS collisional cross section (sample type: Mouse Liver, ion (formula + adduct): [C43H74NO9P-H] 1-): 277.43 ± 0.71 Å²

CCCCCCCCC=CCCCCCCCC(=O)OC(COC(=O)CCCCCCCCCCCCCCC)COP(=O)(O)OCC(O)CO (stereo not drawn) [PG 16:0_18:1]
TIMS collisional cross section (sample type: Mouse Liver, ion (formula + adduct): [C40H77O10P-H] 1-): 275.7 Å²

CCCCC/C=C\CCCCCCCC(=O)OC[C@H](CO)OC(=O)CCCCCCC/C=C\CCCCCCCC [DG 15:1@_18:1_0:0]
TIMS collisional cross section (sample type: Human plasma, ion (formula + adduct): [C36H66O5-H] 1-): 253.8 Å²

CC/C=C\C/C=C\C/C=C\C/C=C\C/C=C\C/C=C\CCC(=O)O[C@H](COC(=O)CCCCCCC/C=C\CCCCCCCC)COP(=O)(O)OC[C@@H](O)CO [PG 18:1_22:6@]
TIMS collisional cross section (sample type: Mouse Liver, ion (formula + adduct): [C46H77O10P-H] 1-): 288.6 Å²

CCCCCC/C=C\CCCCCCCC(=O)O[C@H](COC(=O)CCCCCCCCCCCCCCC)COP(=O)([O-])OCC[N+](C)(C)C [PC 16:0_16:1]
TIMS collisional cross section (sample type: Human plasma, ion (formula + adduct): [C40H78NO8P+HCOO] 1-): 286.6 Å²

CCCCC/C=C\C/C=C\CCCCCCCC(=O)OC[C@H](COP(=O)([O-])OCC[N+](C)(C)C)OC(=O)CCCCCCCCCCCCCCCCCC [PC 18:2_19:0]
TIMS collisional cross section (sample type: Mouse Liver, ion (formula + adduct): [C45H86NO8P+HCOO] 1-): 299 Å²

CCCCCCCCCCCCCCCC(=O)OC[C@@H](O)COP(=O)(O)OCCN [LPE 16:0_0:0]
TIMS collisional cross section (sample type: Human plasma, ion (formula + adduct): [C21H44NO7P-CH3] 1-): 207.4 Å²
TIMS collisional cross section (sample type: Human plasma, ion (formula + adduct): [C21H44NO7P-H] 1-): 214 ± 5.5 Å²
TIMS collisional cross section (sample type: Mouse Liver, ion (formula + adduct): [C21H44NO7P-H] 1-): 219.47 ± 10 Å²

CCCCCC/C=C\CCCCCCCC(=O)O[C@H](COC(=O)CCCCCCC/C=C\CCCCCCCC)COP(=O)(O)OC[C@@H](O)CO [PG 18:1_16:1]
TIMS collisional cross section (sample type: Mouse Liver, ion (formula + adduct): [C40H75O10P-H] 1-): 276.9 Å²

CCCCC/C=C\C/C=C\C/C=C\CCCCC(=O)OC[C@@H](O)COP(=O)(O)OCCN [LPE 18:3_0:0]
TIMS collisional cross section (sample type: Human plasma, ion (formula + adduct): [C23H42NO7P-H] 1-): 211.6 Å²

CCCCC/C=C\C/C=C\CCCCCCCC(=O)O[C@H](COCCCCCCCCCCCCCCCCCC)COP(=O)([O-])OCC[N+](C)(C)C [PC O- 18:0@_18:2]
TIMS collisional cross section (sample type: Mouse Liver, ion (formula + adduct): [C44H86NO7P-CH3] 1-): 276.8 Å²

CCCCCCCC/C=C\CCCCCCCC(=O)OC[C@@H](O)COP(=O)(O)O [LPA 18:1_0:0]
TIMS collisional cross section (sample type: Human plasma, ion (formula + adduct): [C21H41O7P-H] 1-): 205 Å²

CC/C=C\C/C=C\C/C=C\C/C=C\C/C=C\CCCC(=O)OC[C@H](COP(=O)(O)OC1[C@H](O)[C@H](O)C(O)[C@H](O)[C@H]1O)OC(=O)CCCCCCCCCCCCCCC (stereo partly drawn) [PI 20:5@_16:0]
TIMS collisional cross section (sample type: Mouse Liver, ion (formula + adduct): [C45H77O13P-H] 1-): 290.1 ± 1.1 Å²

CC/C=C\C/C=C\C/C=C\C/C=C\C/C=C\CCCC(=O)O[C@H](COC(=O)CCCCCCC/C=C\CCCCCC)COP(=O)(O)OCCN [PE 16:1_20:5]
TIMS collisional cross section (sample type: Mouse Liver, ion (formula + adduct): [C41H70NO8P-H] 1-): 267.1 Å²

CCCCC/C=C\C/C=C\CCCCCCCC(=O)OC[C@H](COP(=O)(O)OC1C(O)C(O)C(O)[C@@H](O)C1O)OC(=O)CCCCCCC/C=C\C/C=C\CCCCC (stereo partly drawn) [PI 18:2_18:2]
TIMS collisional cross section (sample type: Mouse Liver, ion (formula + adduct): [C45H79O13P-H] 1-): 290.2 Å²

CCCCC/C=C\C/C=C\CCCCCCCC(=O)O[C@H](COC(=O)CCCCCCCCCCCCCC)COP(=O)([O-])OCC[N+](C)(C)C [PC 15:0_18:2]
TIMS collisional cross section (sample type: Human plasma, ion (formula + adduct): [C41H78NO8P+HCOO] 1-): 288.2 Å²
TIMS collisional cross section (sample type: Mouse Liver, ion (formula + adduct): [C41H78NO8P+HCOO] 1-): 287.1 Å²

CC/C=C\C/C=C\C/C=C\C/C=C\C/C=C\CCCC(=O)O[C@H](COC(=O)CCCCCCC/C=C\CCCC)COP(=O)([O-])OCC[N+](C)(C)C [PC 14:1@_20:5]
TIMS collisional cross section (sample type: Mouse Liver, ion (formula + adduct): [C42H72NO8P-H] 1-): 269.9 Å²

CC/C=C\C/C=C\C/C=C\C/C=C\C/C=C\C/C=C\CCC(=O)OC(COC(=O)CCCCCCCCCCCCCCC)COP(=O)(O)OCCN (stereo not drawn) [PE 16:0_22:6]
TIMS collisional cross section (sample type: Mouse Liver, ion (formula + adduct): [C43H74NO8P-H] 1-): 274.62 ± 0.25 Å²

CCCCCCCCCCCCCCCCCC(=O)OCC(COP(=O)(O)OCCN)OC(=O)CCCCCCCCCCCCCCCCC (stereo not drawn) [PE 18:0_18:0]
TIMS collisional cross section (sample type: Mouse Liver, ion (formula + adduct): [C41H82NO8P-H] 1-): 275.1 Å²

CCCCC/C=C\C/C=C\CCCCCCCC(=O)OC[C@H](COP(=O)(O)OC[C@H](N)C(=O)O)OC(=O)CCCCCCCCCCCCCCC [PS 18:2@_16:0]
TIMS collisional cross section (sample type: Mouse Liver, ion (formula + adduct): [C40H74NO10P-H] 1-): 282.6 Å²
